Each block holds one compound with its values, some of them ahead of it.
Experiments:
[1] = target: T1, Free fatty acid receptor 4 (Homo sapiens, UniProt Q5NUL3); assay: Agonist activity at human GPR120 expressed in HEK293 cells assessed as calcium accumulation; assay type: cell-based
T1 sequence (Q5NUL3 whole entry): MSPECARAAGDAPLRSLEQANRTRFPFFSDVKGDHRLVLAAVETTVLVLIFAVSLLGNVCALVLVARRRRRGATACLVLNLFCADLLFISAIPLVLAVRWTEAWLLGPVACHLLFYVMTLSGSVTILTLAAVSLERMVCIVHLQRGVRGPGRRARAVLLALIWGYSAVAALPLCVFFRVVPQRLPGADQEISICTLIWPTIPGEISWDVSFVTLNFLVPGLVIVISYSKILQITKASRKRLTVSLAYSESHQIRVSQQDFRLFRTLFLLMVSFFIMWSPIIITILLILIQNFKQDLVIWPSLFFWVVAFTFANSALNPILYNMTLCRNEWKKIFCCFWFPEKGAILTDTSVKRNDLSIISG

[2] = target: T1, Free fatty acid receptor 4; assay: Agonist activity at human GPR120 expressed in HEK293 cells by beta-arrestin assay; assay type: cell-based
[3] = target: T1, Free fatty acid receptor 4; assay: Agonist activity at human GPR120 expressed in CHO-K1 cells by beta-arrestin assay; assay type: cell-based
[4] = test system: DU-145; assay: Antiproliferative activity against LPA-induced human DU-145 cells; assay type: functional, cell-based
[5] = Agonist activity at FFA receptor (unknown origin); parameters: species or system Homo sapiens

Structure (SMILES): OCCCc1c(F)cc(OCc2c(-c3ccc(Cl)cc3)csc2C(F)(F)F)cc1F
EC50 [1]: 0.165 µM | EC50 [2]: 0.125 µM

Structure (SMILES): C#Cc1cc(Oc2cccnc2)cc(N2Cc3ccccc3S2(=O)=O)c1
EC50 [3]: 0.0052 µM

Structure (SMILES): CC/C=C\C/C=C\C/C=C\C/C=C\C/C=C\C/C=C\CCC(=O)O [DOCONEXENT]
IC50 [4]: 0.073 µM

Second part, the compound after the results:

IC50 [4]: 5.7 µM
Structure (SMILES): CC(C)=CCC/C(C)=C/CC/C(C)=C/Cc1c(O)cc(C)c(C(=O)O)c1O [GRIFOLIC ACID]

pEC50 [5]: 5.16
Structure (SMILES): CCCCC/C=C\C/C=C\CCCCCCCC(=O)O [LINOLEIC ACID]
